Data on four compounds can be found in patent publication US12319648B2, “Fluorinated phenylacetic acid derivatives in a weed control method” (SYNGENTA CROP PROTECTION AG, priority 2019, dated 2025).

Holding throughout (assay type): in vivo
Assay [1] has as its system Echinochloa crus-galli (ECHCG). Nature of the assay: Post-emergence herbicidal glasshouse test. As to conditions: post-emergence, 250 g/ha, 13 days after application. As to the method: (§1) Seeds of a variety of test species are shown in standard soil in pots Amaranthus retoflexus (AMARE), Ipomoea hederacea (IPOHE), Solanum nigrum (SOLNI), Lolium perenne (LOLPE). Echinochloa crus-galli (ECHCG), Setaria faberi (SETFA)). After cultivation for one day (pre-emergence) or after 8 days cultivation (post-emergence) under controlled conditions in a glasshouse (at 24/16° C., day/night; 14 hours light; 65% humidity), the plants are sprayed with an aqueous spray solution derived from the formulation of the technical active ingredient in acetone/water (50:50) solution containing 0.5% Tween 20 (polyoxyethylene sorbitan monolaurate, CAS RN 9005-64-5). Compounds are applied at 250 g/ha unless otherwise stated. The test plants are then grown in a glasshouse under controlled conditions in a glasshouse (at 24/16° C., day/night; 14 hours light; 65% humidity) and watered twice daily. After 13 days for pre and post-emergence, the test is evaluated for the percentage damage caused to the plant. The biological activities are shown in the following table on a five-point scale (5=81-100%; 4=61-80%; 3=41-60%; 2=21-40%; 1=0-20%).
(§2) Using the experimental conditions outlined above, a further test is conducted to compare the herbicidal properties of the difluro containing compound (1.014) with a representative compound (C1) referred to in GB901553. The compounds are applied at 1000 g/ha and 500 g/ha. The test is evaluated for the percentage damage caused to the plant (% phytotoxicity).

For assay [2], the system named is Amaranthus retoflexus (AMARE). Nature of the assay: Post-emergence herbicidal glasshouse test. To be noted: post-emergence, 250 g/ha, 13 days after application. As for the experimental part:
as §1, §2

The subject of assay [3] is Lolium perenne (LOLPE). Kind of assay: Post-emergence herbicidal glasshouse test. As to conditions: post-emergence, 250 g/ha, 13 days after application. As to the method: as §1, §2
Assay [4] deals with Setaria faberi (SETFA). Nature of the assay: Post-emergence herbicidal glasshouse test. As to conditions: post-emergence, 250 g/ha, 13 days after application. As to the method:
as §1, §2

Assay [5] has as its system Ipomoea hederacea (IPOHE). Kind of assay: Post-emergence herbicidal glasshouse test. As to conditions: post-emergence, 250 g/ha, 13 days after application. As for the experimental part: as §1, §2
Assay [6] deals with Solanum nigrum (SOLNI). Nature of the assay: Post-emergence herbicidal glasshouse test. To be noted: post-emergence, 250 g/ha, 13 days after application. As for the experimental part:
as §1, §2

Assay [7] has as its system Echinochloa crus-galli (ECHCG). Kind of assay: Pre-emergence herbicidal glasshouse test. To be noted: pre-emergence, 250 g/ha, 13 days after application. As for the experimental part:
as §1, §2

Assay [8] concerns Amaranthus retoflexus (AMARE). Kind of assay: Pre-emergence herbicidal glasshouse test. As to conditions: pre-emergence, 250 g/ha, 13 days after application. As to the method:
as §1, §2

The subject of assay [9] is Lolium perenne (LOLPE). Kind of assay: Pre-emergence herbicidal glasshouse test. As to conditions: pre-emergence, 250 g/ha, 13 days after application. As to the method: as §1, §2
Assay [10] deals with Setaria faberi (SETFA). Nature of the assay: Pre-emergence herbicidal glasshouse test. To be noted: pre-emergence, 250 g/ha, 13 days after application. As to the method: as §1, §2
Assay [11] has as its system Ipomoea hederacea (IPOHE). Nature of the assay: Pre-emergence herbicidal glasshouse test. As to conditions: pre-emergence, 250 g/ha, 13 days after application. As for the experimental part: as §1, §2
The subject of assay [12] is Solanum nigrum (SOLNI). Kind of assay: Pre-emergence herbicidal glasshouse test. To be noted: pre-emergence, 250 g/ha, 13 days after application. As to the method:
as §1, §2

For the compound `O=C(O)C(F)(F)c1cc(Cl)ccc1Cl` [Compound 1.012], the “percentage damage caused to the plant, five-point scale, ECHCG” value (“percentage damage caused … ECHCG” below) in assay [1] and in assay [7] was 1 (1=0-20%) in each case. Besides, the “percentage damage caused to the plant, five-point scale, AMARE” value (“percentage damage caused … AMARE” for short) in assay [2] and in assay [8] was 4 (4=61-80%) throughout. The “percentage damage caused to the plant, five-point scale, LOLPE” value (from here on “percentage damage caused … LOLPE”) in [3] and in assay [9] was 1 (1=0-20%) each time. For the same compound, the “percentage damage caused to the plant, five-point scale, SETFA” value (from here on “percentage damage caused … SETFA”) in assay [4] and in [10] was 1 (1=0-20%) throughout. Moreover, the “percentage damage caused to the plant, five-point scale, IPOHE” value (from here on “percentage damage caused … IPOHE”) in [5] and in assay [11] was 3 (3=41-60%) each time. For the same compound, the “percentage damage caused to the plant, five-point scale, SOLNI” value (from here on “percentage damage caused … SOLNI”) is listed as 4 (4=61-80%) in [6] and 3 (3=41-60%) in [12].
As for `O=C(O)C(F)(F)c1cccc(F)c1Cl` [Compound 1.036], the “percentage damage caused … ECHCG” value in assay [1] and in assay [7] was 1 (1=0-20%) each time. In addition, the “percentage damage caused … AMARE” value in assay [2] and in assay [8] was 4 (4=61-80%) throughout. Further, the “percentage damage caused … LOLPE” value in [3] and in assay [9] was 1 (1=0-20%) in each case. In addition, the “percentage damage caused … SETFA” value in assay [4] and in assay [10] was 1 (1=0-20%) in each case. For the same compound, the “percentage damage caused … IPOHE” value in assay [5] and in [11] was 4 (4=61-80%) each time. The “percentage damage caused … SOLNI” value in assay [6] and in [12] was 4 (4=61-80%) each time.
Take `COC(=O)C(F)(F)c1ccc(Cl)cc1Cl` [Compound 1.003]: the “percentage damage caused … ECHCG” value in [1] and in assay [7] was 1 (1=0-20%) throughout. Besides, the “percentage damage caused … AMARE” value is 3 (3=41-60%) in [2] and 4 (4=61-80%) in assay [8]. For the same compound, the “percentage damage caused … LOLPE” value in [3] and in [9] was 1 (1=0-20%) each time. The “percentage damage caused … SETFA” value in assay [4] and in assay [10] was 1 (1=0-20%) throughout. In addition, the “percentage damage caused … IPOHE” value in assay [5] and in assay [11] was 3 (3=41-60%) in each case. The “percentage damage caused … SOLNI” value is 3 (3=41-60%) in assay [6] and 2 (2=21-40%) in assay [12].
As to `COC(=O)C(F)(F)c1c(Cl)ccc(Cl)c1Cl` [Compound 1.002], the “percentage damage caused … ECHCG” value in assay [1] and in [7] was 1 (1=0-20%) throughout. For the same compound, the “percentage damage caused … AMARE” value in [2] and in assay [8] was 4 (4=61-80%) in each case. Moreover, the “percentage damage caused … LOLPE” value in [3] and in assay [9] was 1 (1=0-20%) each time. In addition, the “percentage damage caused … SETFA” value in assay [4] and in assay [10] was 1 (1=0-20%) throughout. The “percentage damage caused … IPOHE” value in assay [5] is on record as 2 (2=21-40%); in [11], 1 (1=0-20%). For the same compound, the “percentage damage caused … SOLNI” value was 4 (4=61-80%) in assay [6] and 1 (1=0-20%) in assay [12].
